The values that follow come from ChEMBL document CHEMBL1124304 (J Med Chem, 1988).

Broadly, the EC25 is the concentration at which the effect reaches the 25% level. As usually defined, the Ki is a measure of affinity in units of concentration, obtained from inhibition or displacement.

SMILES strings stand for the structures.

Test [1] concerns the target T1, Adenosine receptor A1 (Rattus norvegicus) (UniProt P25099).
T1 sequence (whole entry): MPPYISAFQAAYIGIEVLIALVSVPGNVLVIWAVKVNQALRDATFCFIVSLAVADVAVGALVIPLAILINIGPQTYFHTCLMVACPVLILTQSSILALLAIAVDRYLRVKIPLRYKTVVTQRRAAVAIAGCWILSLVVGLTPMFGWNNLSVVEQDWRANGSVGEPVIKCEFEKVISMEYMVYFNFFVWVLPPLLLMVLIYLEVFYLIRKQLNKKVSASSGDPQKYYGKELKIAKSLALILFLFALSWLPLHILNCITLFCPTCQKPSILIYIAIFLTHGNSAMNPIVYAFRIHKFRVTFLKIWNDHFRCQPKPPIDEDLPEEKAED
Kind of test: (§1) Reduction of heart rate (A1 response) in isolated rat heart preparation. Type of test: functional, tissue-based.

In test [2] the target is T2, Adenosine A2 receptor (Rattus norvegicus) (UniProt P29276+P30543).
Test [3] addresses T2, Adenosine A2 receptor (Rattus norvegicus). This is another data set of the same source.
The next test concerns the target T3, Adenosine receptor A1 (Rattus norvegicus, UniProt P25099).
T3 sequence (P25099 whole entry): T1 sequence (whole entry)

For a further test, the target named is Adenosine A2 receptor (Rattus norvegicus, UniProt P29276+P30543).
The species named for test [4] is Rattus norvegicus. Put plainly: Enhancement of coronary flow (A2 response) in isolated rat heart preparation. The class given is functional.
Test [5] is filed under the species Rattus norvegicus. Described as §1. The class given is functional.

For `Nc1nc(Nc2ccccc2)nc2c1ncn2[C@@H]1O[C@H](CO)[C@@H](O)[C@H]1O`, the EC25 amounted to 7000 nM in test [1] and 3 nM in test [2].

As to `OC[C@H]1O[C@@H](n2cnc3c(NCC(c4ccccc4)c4ccccc4)ncnc32)[C@H](O)[C@@H]1O`, the EC25 in test [1] came to 90 nM; in test [2], 10 nM.

Take `OC[C@H]1O[C@@H](n2cnc3c(NCC4c5ccccc5-c5ccccc54)ncnc32)[C@H](O)[C@@H]1O`: the concentration for an effect of 25% (EC25) worked out at 100 nM in test [1] and 2 nM in test [3].

For `OC[C@H]1OC(n2cnc3c(NCC4c5ccccc5CCc5ccccc54)ncnc32)[C@H](O)[C@@H]1O` (stereo partly specified), the results for the Ki at Adenosine receptor A1 and at Adenosine A2 receptor were 160 nM and 390 nM, respectively.

As for `Nc1nc(Cl)nc2c1ncn2[C@@H]1O[C@H](CO)[C@@H](O)[C@H]1O`, the EC25 was determined as 170 nM in test [1] and 13 nM in test [2].

With `OC[C@H]1O[C@@H](n2cnc3c(NCCc4ccccc4)ncnc32)[C@H](O)[C@@H]1O`, the 25% effect concentration (EC25) in test [1] worked out at 300 nM; in test [2] it was 70 nM. This compound showed a Ki on Adenosine A2 receptor of 160 nM.

As to `CCNC(=O)[C@H]1O[C@@H](n2cnc3c(N)ncnc32)[C@H](O)[C@@H]1O` [NECA], the EC25 in the test filed under Rattus norvegicus [4] was 1.1 nM; in the test filed under Rattus norvegicus [5], 21 nM.

As for `C[C@H](Cc1ccccc1)Nc1ncnc2c1ncn2[C@@H]1O[C@H](CO)[C@@H](O)[C@H]1O`, the figures for the EC25 in test [1] and in test [2] were 13 nM and 10 nM, respectively.

As to `OC[C@H]1OC(n2cnc3c(NCc4c5ccccc5cc5ccccc45)ncnc32)[C@H](O)[C@@H]1O` (stereo partly specified), the Ki stood at 9000 nM at Adenosine receptor A1 and 29000 nM at Adenosine A2 receptor.

Take `OC[C@H]1O[C@@H](n2cnc3c(NC4CCCC4)ncnc32)[C@H](O)[C@@H]1O`: the EC25 was 3 nM in test [1] and more than 100 nM in test [2].

On to `OC[C@H]1OC(n2cnc3c(NCCC4c5ccccc5-c5ccccc54)ncnc32)[C@H](O)[C@@H]1O` (stereo partly specified), for which the EC25 was more than 3000 nM in test [1] and 400 nM in test [3]. The Ki at Adenosine receptor A1 amounted to 320 nM; at Adenosine A2 receptor, 4300 nM.

Take `OC[C@H]1OC(n2cnc3c(NCC4c5ccccc5Oc5ccccc54)ncnc32)[C@H](O)[C@@H]1O` (stereo partly specified): the EC25 in test [1] was 1200 nM; in test [3], 2 nM. Moreover, the Ki was found to be 62 nM at Adenosine receptor A1 and 48 nM on Adenosine A2 receptor.

On to `OC[C@H]1OC(n2cnc3c(NCCc4cccc5ccccc45)ncnc32)[C@H](O)[C@@H]1O` (stereo partly specified), for which the values for the EC25 in test [1] and in test [3] were 110 nM and 30 nM, respectively. Besides, the Ki was determined as 12.3 nM on Adenosine receptor A1 and 230 nM at Adenosine A2 receptor.

In the case of `OC[C@H]1O[C@@H](n2cnc3c(NCc4ccccc4)ncnc32)[C@H](O)[C@@H]1O`, the EC25 in test [1] was found to be 2300 nM; in test [2], 35 nM.

As to `OC[C@H]1O[C@@H](n2cnc3c(NCc4cccc5ccccc45)ncnc32)[C@H](O)[C@@H]1O`, the concentration for an effect of 25% (EC25) in test [1] came to 400 nM; in test [3], 1.2 nM. For the same compound, the inhibition constant Ki at Adenosine receptor A1 was found to be 24 nM; on Adenosine A2 receptor it was 9.1 nM.

Take `OC[C@H]1OC(n2cnc3c(NC4c5ccccc5-c5ccccc54)ncnc32)[C@H](O)[C@@H]1O` (stereo partly specified): the Ki was 6200 nM at Adenosine receptor A1 and 42000 nM at Adenosine A2 receptor.
